Experimental data from PMC8279484 (Journal of Medicinal Chemistry, 2021).

How the values were obtained:
wild-type HEK-293 cells = experiment: Intracellular calcium flux in wild-type HEK-293 (specificity control); assay type: cell-based, human
Experimental: (§1) To explore the mechanism of action through which the sLXm lead compound exerts the effects seen here, its interaction with the ALX/FPR2 receptor was investigated and agonist-induced intracellular calcium transients were measured using an engineered cell line stably overexpressing the ALX/FPR2 receptor and the Gαq subunit coupled to it (Figure S6). Wild-type HEK cells were used as controls, to verify the specificity of the agonism toward ALX/FPR2, as previously reported.[36] Briefly, prior to cell plating, sterile 96-well plates (black-sided with optically clear glass flat bottoms) were PDL-coated overnight. Subsequently, 2 × 10^5 wild-type cells and overexpressed cells/well were cultured for 18 h in DMEM complete media (containing Ca^2+ and Mg^2+) to facilitate adherence prior to labeling with Fluo-4 dye. After 1 h of incubation at 37 °C with Fluo-4, cells were gently washed twice and placed in 100% Hanks’ balanced salt solution (HBSS; 37 °C) before reading the fluorescence (485/535 nm), using a spectrophotometer conjugated with an injection system (Clariostar BMG LABTECH plate reader), allowing addition to the cells of controls (1 mM ATP, a GPCR purinergic agonist, 2 nM Wp, a synthetic ALX/FPR2 agonist) or experimental treatments [10 pM, 1 nM, and 100 nM LXA41 or (R)-6].

ALX/FPR2 receptor = molecular target: T1, ALX/FPR2 receptor (Homo sapiens, UniProt P25090); experiment: Intracellular calcium flux in FPR2+/Gαq+ stably transfected HEK-293; assay type: cell-based; details: for Emax: HEK293, % delta calcium signal relative to peak of full agonist (1), 10 pM–100 nM, read-out: Efficacy Emax (%)
T1 construct: host or cells: HEK-293, stably double-transfected FPR2+/Gαq+
T1 sequence (P25090 1-351): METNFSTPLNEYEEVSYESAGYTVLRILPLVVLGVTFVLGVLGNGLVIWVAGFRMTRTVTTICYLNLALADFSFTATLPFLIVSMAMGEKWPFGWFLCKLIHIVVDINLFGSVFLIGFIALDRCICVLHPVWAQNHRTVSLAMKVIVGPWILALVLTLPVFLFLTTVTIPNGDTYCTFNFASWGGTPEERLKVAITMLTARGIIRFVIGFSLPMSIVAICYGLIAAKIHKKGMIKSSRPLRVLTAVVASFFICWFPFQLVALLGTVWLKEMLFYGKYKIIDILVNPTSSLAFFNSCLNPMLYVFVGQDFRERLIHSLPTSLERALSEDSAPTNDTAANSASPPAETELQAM
Experimental: HEK-293-transfected and wt cell lines were cultured in Dulbecco’s modified Eagle’s medium (DMEM Glutamax, 4 mM L-glu and 4.50 g/L glucose—Gibco, Ireland) supplemented with heat-inactivated (30 min at 56C) 10% (v/v) FBS (Invitrogen, U.K.), 50 U penicillin, and 50 μg of streptomycin (Invitrogen, U.K.). As stably double-transfected FPR2^+/Gαq^+ HEK-293 cells were resistant to Geneticin and Hygromycin, these were used as selective antibiotics (500 and 100 μg/mL, respectively) to maintain the stable double transfection with the ALX/FPR2 receptor and the Gαq subunit coupled to it. Immediately prior to calcium measurement, fluorescently labeled cells were treated with 10^–11/–9/–7M LXA41 or sLXms using an injection system coupled to the fluorescence reader.
as §1, with “([…],” for “(1 mM ATP, a GPCR purinergic agonist,”
During calcium flux measurement, the kinetic steps involved were the following: the baseline fluorescent signal was measured for 20 s, followed by 100 s immediately after agonist injection. Subsequently, 2% Triton-X-100 was added to lyse the cells (monitoring for 20 s the maximal release of calcium ions in the extracellular environment) and, finally, 25 mM tetraacetic acid (EGTA) was added to chelate calcium ions (monitoring for additional 20 s the minimal detection of calcium ions in the extracellular environment) (Figure S7).
The “coding” of the heat-map indicates the arbitrary criteria to assign points to each single PD component (efficacy = Imax or Emax; potency = IC50 or EC50; slope = HS) to generate a final (aggregate) relative PD score. If a single PD component was greater than the reference level (x > 1), then the single-component relative score was arbitrarily set to +1 (light green) or +2 (dark green). If a single PD component was equal to the reference level (x = 1), then the single-component relative score was arbitrarily set to 0 (gray). If a single PD component was smaller than the reference level (x < 1), then the single-component relative score was arbitrarily set to −1 (light red) or −2 (dark red). If the curve of a single PD component was best fitting to a flat line (x = 0), then the single-component relative score was arbitrarily set to −4 (purple) (Table S1).

Compound | Ca^2+ mobilization in wild-type HEK-293 cells (wild-type HEK-293 cells) | Slope HS (ALX/FPR2 receptor) | type of agonism at ALX/FPR2 (ALX/FPR2 receptor) | ALX/FPR2 activation lower than that induced by native LXA4 (ALX/FPR2 receptor; both at 10 pM) [%] | (Single component) Rel. Score: Rel. Eff. (ALX/FPR2 receptor; relative to LXA4 (1)) | (Single component) Rel. Score: Rel. Sl. (ALX/FPR2 receptor; relative to LXA4 (1)) | Efficacy Rel. Eff. (ALX/FPR2 receptor; relative to LXA4 (1)) | Potency Rel. Pot. (ALX/FPR2 receptor; relative to LXA4 (1)) | Rel. Slope (ALX/FPR2 receptor; relative to LXA4 (1)) | Emax (ALX/FPR2 receptor) [%] | (Aggregate) Rel. PD Score (ALX/FPR2 receptor; relative to LXA4 (1))
CCCCC[C@@H](O)c1nc2ccccc2nc1/C=C/[C@@H](O)[C@@H](O)CCCC(=O)OC [(R)-6, Methyl (5S,6R,E)-5,6-Dihydroxy-8-(3-((R)-1-hydroxyhexyl)quinoxalin-2-yl)oct-7-enoate] | no calcium release was induced | 220 | equipotent partial agonist | 40 | -2 | 1 (1 < x < 10) | 0.61 | 1 | 1.46 | – | –
CCCCC[C@H](O)/C=C/C=C\C=C\C=C\[C@@H](O)[C@@H](O)CCCC(=O)O [Compound 1, LXA4] | without effect | 150 | full agonist | – | – | – | 1 | 1 | 1 | 100 | –
CCCCC[C@@H](O)c1c(/C=C/[C@@H](O)[C@@H](O)CCCC(=O)OC)nc(C)n1C [Compound 5, imidazolo-LXA4] | – | 258 | – | – | – | 2 (x ≥ 10) | 0.99 | 1 | 1.72 | 99 ± 17 | 2
